Laboratory results as given in ChEMBL document CHEMBL3885861, “Open TG-GATES”.

Species: Rattus norvegicus
Assay: Open TG-GATES - Regimen: Single
Format: toxicity, organism-based, Sprague-Dawley
Design: regimen Single, gender Male, age 6 weeks
Settings: in vivo, po, route gavage; for APTT / Bas / Eos / Fbg / Hb / Ht / Lym / MCH / MCHC / MCV / Mono / Neu / PT / Plat / RBC / Ret / WBC: tissue Blood; for KIDNEY_L / KIDNEY_R / KIDNEY_TOTAL: tissue Kidney; for ALP / AST / CRE / Cl / DBIL / GLC / IP / K / LDH / Na / PL / RALB / TBIL / TC / TG / TP / gamma-GTP / ALT: tissue Plasma
[1] = 0 mg/kg, 3 h, dose level Control
[2] = 0 mg/kg, 6 h, dose level Control
[3] = 0 mg/kg, 9 h, dose level Control
[4] = 0 mg/kg, 24 h, dose level Control

In the case of `COc1cc2c(c(OC)c1OC)-c1ccc(OC)c(=O)cc1[C@@H](NC(C)=O)CC2` [COLCHICINE], the TERMINAL_BW [1] is reported as 221.7 g, the APTT [1] is reported as 16.2 s and the Bas [1] is reported as 0%. It also gave an Eos [1] of 0.8%, a Fbg [1] of 209.4 mg/dL and a Hb [1] of 13.1 g/dL. The Ht [1] was 39.6%, the Lym [1] was 81.8% and the MCH [1] was 21.6 pg. The MCHC [1] was 33.1%, the MCV [1] was 65.2 fL and the Mono [1] was 7%. For the same compound, the Neu [1] was 10.4%, the PT [1] was 11.8 s and the Plat [1] was 118.4 x10_4/uL. For the same compound, the RBC [1] was 608.4 x10_4/ul, the Ret [1] was 10.3% and the WBC [1] was 89.6 x10_2/uL. It also gave a KIDNEY_L [1] of 1 g, a KIDNEY_R [1] of 1.1 g and a KIDNEY_TOTAL [1] of 2 g. For the same compound, the ALP [1] was 835.6 IU/L, the AST [1] was 65.6 IU/L and the CRE [1] was 0.4 mg/dL. The Cl [1] was 103.4 meq/L, the DBIL [1] was 0.038 mg/dL and the GLC [1] was 208.6 mg/dL. It also gave an IP [1] of 9.3 mg/dL, a K [1] of 4.5 meq/L and an LDH [1] of 88.4 IU/L. The Na [1] was 140.2 meq/L, the PL [1] was 139.2 mg/dL and the RALB [1] was 3.6 g/dL. The TBIL [1] was 0.3 mg/dL, the TC [1] was 78.4 mg/dL and the TG [1] was 61 mg/dL. For the same compound, the TP [1] was 5.4 g/dL, the gamma-GTP [1] was 1.4 IU/L and the TERMINAL_BW [2] was 218.4 g. It also gave an APTT [2] of 16.3 s, a Bas [2] of 0% and an Eos [2] of 0.8%. For the same compound, the Fbg [2] was 222.4 mg/dL, the Hb [2] was 13.1 g/dL and the Ht [2] was 39.9%. For the same compound, the Lym [2] was 82.2%, the MCH [2] was 21.6 pg and the MCHC [2] was 33%. For the same compound, the MCV [2] was 65.4 fL, the Mono [2] was 6.6% and the Neu [2] was 10.4%. The PT [2] was 12 s, the Plat [2] was 110.7 x10_4/uL and the RBC [2] was 609.8 x10_4/ul. It also gave a Ret [2] of 9.6%, a WBC [2] of 104.3 x10_2/uL and a KIDNEY_L [2] of 1 g. The KIDNEY_R [2] was 1 g, the KIDNEY_TOTAL [2] was 2 g and the ALP [2] was 745.2 IU/L. For the same compound, the ALT [2] was 27.6 IU/L, the AST [2] was 59 IU/L and the CRE [2] was 0.5 mg/dL. For the same compound, the Cl [2] was 104 meq/L, the DBIL [2] was 0.036 mg/dL and the GLC [2] was 188.2 mg/dL. It also gave an IP [2] of 10.1 mg/dL, a K [2] of 4.6 meq/L and an LDH [2] of 77.2 IU/L. For the same compound, the Na [2] was 139 meq/L, the PL [2] was 135.2 mg/dL and the RALB [2] was 3.7 g/dL. For the same compound, the TBIL [2] was 0.4 mg/dL, the TC [2] was 73.2 mg/dL and the TG [2] was 48.4 mg/dL. It also gave a TP [2] of 5.5 g/dL, a gamma-GTP [2] of 1.6 IU/L and a TERMINAL_BW [3] of 218.9 g. The APTT [3] was 16.3 s, the Bas [3] was 0% and the Eos [3] was 0.8%. The Fbg [3] was 216.2 mg/dL, the Hb [3] was 12.8 g/dL and the Ht [3] was 38.9%. For the same compound, the Lym [3] was 85.4%, the MCH [3] was 21.6 pg and the MCHC [3] was 33%. For the same compound, the MCV [3] was 65.8 fL, the Mono [3] was 5.4% and the Neu [3] was 8.4%. The PT [3] was 12.1 s, the Plat [3] was 111 x10_4/uL and the RBC [3] was 591.6 x10_4/ul. The Ret [3] was 9.4%, the WBC [3] was 88.7 x10_2/uL and the KIDNEY_L [3] was 1 g. The KIDNEY_R [3] was 1.1 g, the KIDNEY_TOTAL [3] was 2.1 g and the ALP [3] was 948.4 IU/L. For the same compound, the ALT [3] was 28.8 IU/L, the AST [3] was 64.4 IU/L and the CRE [3] was 0.5 mg/dL. The Cl [3] was 105.2 meq/L, the DBIL [3] was 0.044 mg/dL and the GLC [3] was 199.8 mg/dL. The IP [3] was 9.9 mg/dL, the K [3] was 4.9 meq/L and the LDH [3] was 71.2 IU/L. It also gave a Na [3] of 137.6 meq/L, a PL [3] of 134.4 mg/dL and an RALB [3] of 3.8 g/dL. For the same compound, the TBIL [3] was 0.4 mg/dL, the TC [3] was 77.6 mg/dL and the TG [3] was 40 mg/dL. For the same compound, the TP [3] was 5.4 g/dL, the gamma-GTP [3] was 1.6 IU/L and the TERMINAL_BW [4] was 232.9 g. It also gave an APTT [4] of 16.4 s, a Bas [4] of 0% and an Eos [4] of 1.2%. The Fbg [4] was 215.8 mg/dL, the Hb [4] was 12.8 g/dL and the Ht [4] was 38.6%. For the same compound, the Lym [4] was 77.2%, the MCH [4] was 21.7 pg and the MCHC [4] was 33.1%. The MCV [4] was 65.5 fL, the Mono [4] was 7.2% and the Neu [4] was 14.6%. For the same compound, the PT [4] was 11.2 s, the Plat [4] was 118.5 x10_4/uL and the RBC [4] was 588.4 x10_4/ul. For the same compound, the Ret [4] was 10.2%, the WBC [4] was 102.4 x10_2/uL and the KIDNEY_L [4] was 1.1 g. The KIDNEY_R [4] was 1.1 g, the KIDNEY_TOTAL [4] was 2.2 g and the ALP [4] was 858 IU/L. For the same compound, the AST [4] was 61.2 IU/L, the CRE [4] was 0.5 mg/dL and the Cl [4] was 102.8 meq/L. For the same compound, the DBIL [4] was 0.022 mg/dL, the GLC [4] was 203 mg/dL and the IP [4] was 7.7 mg/dL. The K [4] was 4.9 meq/L, the LDH [4] was 86.2 IU/L and the Na [4] was 137.6 meq/L. The PL [4] was 156.8 mg/dL, the RALB [4] was 3.8 g/dL and the TBIL [4] was 0.4 mg/dL. It also gave a TC [4] of 84.8 mg/dL, a TG [4] of 122.8 mg/dL and a TP [4] of 5.7 g/dL. It also gave a gamma-GTP [4] of 1 IU/L and a TERMINAL_BW (2 mg/kg, 3 h, dose level Low) of 218.7 g.
